Experimental findings from publication PMC5131364, “Pharmacologic modulation of RORγt translates to efficacy in preclinical and translational models of psoriasis and inflammatory arthritis” (Scientific Reports, 2016) are described below.

SMILES strings stand for the structures. Read-outs that look alike come from different tables or passages of the source.

The subject of one experiment is mouse splenic γδ T cells. As to the kind of experiment: Mouse γδ+ T cell in vitro activation. The settings on record: for IC50: Mus musculus, T-cell, IL-1β/IL-23 plus anti-IFNγ, 65 hours, ELISA. The format is cell-based. The text has this: The following antibodies (anti-mouse or anti-human) were purchased from BD Biosciences (San Diego, CA) or eBioscience (San Diego, CA): anti-CD3-FITC (mouse 17A2 and human SK7), anti-CD4-allophycocyanin (APC), anti-CD4-PerCp, anti-CD4-FITC, anti-CD4-PE (mouse GK1.5 and human SK3), anti-CD44-PerCp (mouse IM7), anti-γδ TCR-FITC, anti-γδ TCR-PE (mouse GL3 and human B1), anti-CD62L-FITC (mouse MEL-14 and human SK11), anti-CD45RO-APC (human UCHL1), anti-CCR6-PE (human 11A9), anti-CD45-PerCp (mouse 30-F11). Human or mouse anti-IFNγ (mouse XMG1.2 and human 4S.B3), anti-TNFα (mouse MP6-XT22 and human MAB11), anti-IL-17A (mouse eBio17B7 and human eBio64DEC17), anti-IL-22 (mouse 1H8PWSR and human 22URTI), and anti-Foxp3 (mouse FJK-16s and human 36A/E7), all PE or APC conjugated, were purchased from eBioscience (San Diego, CA). Human and mouse APC conjugated CD1d tetramers pre-loaded with alpha-GalCer and negative controls were obtained from ProImmune. For intracellular staining cells were stimulated for 4 hours at 37 °C with PMA and ionomycin (0.5 μg/ml each) in the presence of brefeldin A and monensin or with leukocyte activation cocktail (BD Bioscience, San Diego, CA). Cells were stained with fluorescence-labeled antibodies for surface marker, then fixed/permeabilized (eBioscience) and stained with antibodies for intracellular cytokines. For Foxp3 staining cells were fixed/permeabilized using transcription factor buffer set (eBioscience). The data were acquired on a FACS Calibur (BD Bioscience) and analyzed using FlowJo software (Tree Star, San Carlos, CA).
Mouse γδ^+ T cells were isolated from splenocytes of C57BL/6N mice using TCR γδ^+ T Cell Isolation Kit (Miltenyl Biotec, Auburn, CA), following the manufacturer’s instructions. Cells were resuspended in culture medium and seeded in 96-well plates at 5 × 10^4 per well. […] Cells were incubated at 37 °C and 5% CO2 for 65 hours before sample collection. Supernatant samples were collected for measurement of IL-17A, IL-17F and IL-22 using R&D ELISA kits, according to manufacturer’s instructions. Cytokine-producing cells were analyzed through intracellular staining and flow cytometry analysis.

A further experiment deals with T1, RORβ (Homo sapiens, UniProt Q92753).
T1 construct: NP_008845, aa 201–459; expressed in transfected cells; host or cells: HEK293T
Briefly: 1-hybrid reporter assay in HEK293T cells (GAL4-RORβ). The format is cell-based. Particulars: HEK-293T. How it is done: The reporter assay was performed by transient co-transfection of HEK293T cells with pCMV-BD (Stratagene #211342) containing the GAL4 DNA-binding domain fused with full-length human RORγt (Genbank accession no. NP_001001523, aa 1–497), pFR-Luc reporter and pRL-CMV reporter (Promega #E2261) plus Carrier DNA (Clontech # 630440) using PEI solution (Sigma Aldrich cat# 40872-7) in a 96-well plate. […] Medium was removed and cells were lysed with Passive Lysis Buffer (Promega). Firefly luciferase buffer was then added and firefly luciferase luminescence was read on BMG LUMIstar OPTIMA luminescence plate reader. One second later, renilla luciferase buffer was then added and renilla luciferase luminescence was read to measure cell viability. For RORα and RORβ activity, similar assays were performed except cells were transfected with pCMV-BD-RORα (Genbank accession no. NP_599022, aa 305–556) or pCMV-BD-RORβ (Genbank accession no. NP_008845, aa 201–459).
In general terms: Reporter assays use an easily measured gene product as a stand-in for the process of interest.

The test system of a further experiment is mouse iNKT cells. As to the kind of experiment: Mouse NKT cell in vitro activation. The format is cell-based. Particulars: IL-1β/IL-23 plus anti-IFNγ, 4 days, 1 μM. An excerpt:
The following antibodies (anti-mouse or anti-human) were purchased from BD Biosciences (San Diego, CA) or eBioscience (San Diego, CA): anti-CD3-FITC (mouse 17A2 and human SK7), anti-CD4-allophycocyanin (APC), anti-CD4-PerCp, anti-CD4-FITC, anti-CD4-PE (mouse GK1.5 and human SK3), anti-CD44-PerCp (mouse IM7), anti-γδ TCR-FITC, anti-γδ TCR-PE (mouse GL3 and human B1), anti-CD62L-FITC (mouse MEL-14 and human SK11), anti-CD45RO-APC (human UCHL1), anti-CCR6-PE (human 11A9), anti-CD45-PerCp (mouse 30-F11). […] Cells were stained with fluorescence-labeled antibodies for surface marker, then fixed/permeabilized (eBioscience) and stained with antibodies for intracellular cytokines. […] The data were acquired on a FACS Calibur (BD Bioscience) and analyzed using FlowJo software (Tree Star, San Carlos, CA).
Single cell suspension was generated from mouse mesenteric lymph-nodes. […] NKT cells were identified among total live cells using anti-CD3 and mouse conjugated CD1d-tetramer pre-loaded with alpha-GalCer, and cytokine-producing NKT cells were analyzed through intracellular staining. […]

Experiment [1] deals with collagen-induced arthritis in DBA/1Lacj mice. Briefly: Mouse collagen-induced arthritis model. It is filed as in vivo. Particulars: 60 mg/kg BID oral. The procedure:
Mice (female DBA/1Lacj mice, Jackson Laboratories; 8–10 weeks) were housed with 12 hours light-dark cycle with food and water provided ad libitum. Following acclimation, mice were immunized with an emulsion containing equal amounts of Chick Type II Collagen (Chondrex, Redmond, WA) and Complete-Freund’s adjuvant (CFA, Chondrex), 100 μg each per mouse, on day 0 at the base of the tail and administered a second immunization boost on day 21. On day 21, animals were examined for clinical arthritis scores and randomized into treatment groups. […] The clinical arthritis scores were evaluated from days 21 to 34. Animals were euthanized under CO2 on day 35. Both hind-paws from each animal were collected and fixed in 10% neutral buffered formalin for histopathology. Both front paws were digested after removing the skin in 0.125% (v/v) Dispase II (Roche, Indianapolis, IN), 0.2% collagenase II (Roche, Indianapolis, IN), and 0.2% collagenase IV (Sigma-Aldrich, St. Louis, MO) in HBSS for 75 min at 37 °C and passed through a cell strainer. Cells were then stimulated and analyzed by flow cytometry for cytokine-producing cells.
Tissues were fixed in 10% formalin, sectioned, and stained with H&E for histology at Seventh Wave Laboratories, LLC, (Chesterfield, MO).

T1 sequence (Q92753 212-470): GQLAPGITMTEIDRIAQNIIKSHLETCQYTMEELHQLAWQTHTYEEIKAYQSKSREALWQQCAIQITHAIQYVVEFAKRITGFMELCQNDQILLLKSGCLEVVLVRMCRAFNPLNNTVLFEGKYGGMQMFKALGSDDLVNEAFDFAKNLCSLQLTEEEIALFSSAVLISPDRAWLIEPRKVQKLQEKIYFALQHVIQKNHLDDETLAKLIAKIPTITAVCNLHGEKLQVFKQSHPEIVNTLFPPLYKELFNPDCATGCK

As for `COc1nc2ccc([C@@](O)(c3ccc(C)nc3C)c3cnnn3C)cc2c(Cl)c1Cc1ccc(C(F)(F)F)cc1` [JNJ-54271074], the “decrease of the percentage of IL-17A- and IL-17A/IL-22-producing cells” value in the experiment on mouse splenic γδ T cells (0.1 μM) is given as “about 50%”. Also, the IC50 was 77 nM with mouse splenic γδ T cells (read-out: IC50, IL-17A production); 54 nM with mouse splenic γδ T cells (read-out: IC50, IL-17F production); 83 nM in the experiment on mouse splenic γδ T cells (read-out: IC50, IL-22 production); above 10000 nM on RORβ. Also, the “IL-17A production by mouse iNKT cells” value in the experiment on mouse iNKT cells is given as “suppressed”. Besides, the “reduction of AUC for disease score” value in experiment [1] is 79%. Moreover, in experiment [1] (day 35), the “decrease of IL-17A-producing CD3+ cell population in paws” value is ~ 70%. Besides, the “inflammation, cartilage damage and bone destruction compared with vehicle” value in experiment [1] (hind paws histology) is “significantly reduced”. The “reduction of total histopathology score” value in experiment [1] (hind paws, day 35) was determined as 80%.

The IC50 is the concentration at which inhibition is half-maximal.
